# Patent US20230053540A1, “TREATMENT OF LIVER INJURY” (Massachusetts Institute of Technology, priority 2019, published 2023)
# System: hepatocytes
# Test: Seq-Well scRNA-Seq of hepatocytes after APAP overdose (signature scores, DEG vs untreated)
# Type: in vivo, mouse
# Details: APAP vs UT
smiles,measurement,setting,value
"CC(=O)Nc1ccc(O)cc1 [APAP, acetaminophen]",Ndufb4 logFC,,−0.4537
same,Ndufb6 logFC,,−0.5077
same,Ndufb9 logFC,,−0.5038
same,Ndufb11 logFC,,−0.5097
same,Ndufs6 logFC,,−0.5379
same,Nedd4 logFC,,0.3774
same,Nit2 logFC,,−0.4859
same,Nolc1 logFC,,0.4722
same,Nop56 logFC,,0.2657
same,Nr5a2 logFC,,0.322
same,Nrp1 logFC,,0.3608
same,Oaz1 logFC,,−0.4185
same,Orm2 logFC,,0.2715
same,Pah logFC,,−0.5221
same,Park7 logFC,,−0.2602
same,Pdcd4 logFC,,0.4882
same,Pdia4 logFC,,0.4882
same,Pdia6 logFC,,−0.39
same,Pemt logFC,,−0.5512
same,Pfkfb2 logFC,,0.29
same,Picalm logFC,,0.7545
same,Pik3c2a logFC,,0.3249
same,Plec logFC,,0.4675
same,Plg logFC,,0.2617
same,Ppan logFC,,0.2724
same,Ppib logFC,,−0.5897
same,Ppm1k logFC,,−0.5584
same,Ppp1r3b logFC,,−0.4027
same,Ppp2r5a logFC,,−0.2605
same,Prg4 logFC,,0.4306
same,Prkd3 logFC,,0.3665
same,Pten logFC,,0.3559
same,Ptms logFC,,0.2678
same,Ptpn1 logFC,,0.4163
same,Ptpn12 logFC,,0.3342
same,Qdpr logFC,,−0.5236
same,Qsox1 logFC,,0.3424
same,Rab1 logFC,,0.3526
same,Rad54l2 logFC,,0.3887
same,Ranbp2 logFC,,0.5985
same,Rarres2 logFC,,−0.5522
same,Rdh16 logFC,,0.2692
same,Rgs2 logFC,,0.3957
same,Rnd3 logFC,,0.3655
same,Rock2 logFC,,0.5941
same,Rora logFC,,0.6444
same,Rpl32 logFC,,−0.5322
same,Rpl36a1 logFC,,−0.4755
same,Rplp1 logFC,,−0.5047
same,Rpn1 logFC,,0.4124
same,Rps2 logFC,,−0.3879
same,Rrbp1 logFC,,0.3069
same,S100a1 logFC,,−0.3762
same,Saa4 logFC,,−0.571
same,Sar1b logFC,,−0.3176
same,Sat1 logFC,,0.6887
same,Sc5d logFC,,−0.5009
same,Sdad1 logFC,,0.3124
same,Sdc3 logFC,,0.3598
same,Sdc4 logFC,,0.6196
same,Sdhd logFC,,−0.3353
same,Sds logFC,,−0.407
same,Sec61a1 logFC,,0.3139
same,Selenbp1 logFC,,−0.4937
same,Serp1 logFC,,0.3124
same,Serpina3c logFC,,−0.4725
same,Sfxn1 logFC,,0.3049
same,Slc2a2 logFC,,−0.3123
same,Slc3a1 logFC,,0.341
same,Slc10a2 logFC,,0.299
same,Slc20a1 logFC,,0.3572
same,Slc37a4 logFC,,0.2683
same,Slc38a3 logFC,,−0.4098
same,Slc38a4 logFC,,0.2637
same,Slco1a1 logFC,,−0.3628
same,Son logFC,,0.5429
same,Sorl1 logFC,,0.3067
same,Sparcl1 logFC,,−0.2536
same,Spcs3 logFC,,0.3942
same,Spred1 logFC,,0.3884
same,Sqstm1 logFC,,0.7432
same,Ssr1 logFC,,0.3278
same,Ssr4 logFC,,−0.5076
same,St3gal1 logFC,,0.5287
same,Stard4 logFC,,0.3515
same,Stard10 logFC,,−0.3383
same,Stat3 logFC,,0.7154
same,Stk40 logFC,,0.5364
same,Tacc2 logFC,,0.3293
same,Tatdn2 logFC,,0.3733
same,Tbc1d15 logFC,,0.4886
same,Tcerg1 logFC,,0.3575
same,Thrsp logFC,,−0.725
same,Tiparp logFC,,0.5456
same,Tjp2 logFC,,0.4115
same,Tlcd2 logFC,,−0.5945
same,Tm4sf4 logFC,,0.5126
same,Tmed7 logFC,,0.3868
same,Tmem30a logFC,,0.3328
same,Tmem87b logFC,,0.4344
same,Tmem106b logFC,,0.2802
same,Tmem256 logFC,,−0.5185
same,Tnfrsf1a logFC,,0.5996
same,Tra2a logFC,,0.7123
same,Tram1 logFC,,0.4111
same,Trip12 logFC,,0.3283
same,Tsc22d2 logFC,,0.3911
same,Tsku logFC,,0.3676
same,Tsr1 logFC,,0.3603
same,Ttc39c logFC,,−0.6363
same,Tubb2a logFC,,0.7494
same,Ubxn4 logFC,,0.2503
same,Ucp2 logFC,,0.2612
same,Ugdh logFC,,0.6331
same,Uggt1 logFC,,0.2845
same,Ugt2a3 logFC,,−0.3334
same,Uox logFC,,−0.5531
same,Upb1 logFC,,−0.4187
same,Upp2 logFC,,−0.6903
same,Uqcr10 logFC,,−0.4519
same,Uqcr11 logFC,,−0.6031
same,Uqcrh logFC,,−0.4292
same,Usmg5 logFC,,−0.4305
same,Uso1 logFC,,0.3881
same,Usp4 logFC,,0.3247
same,Usp9x logFC,,0.4076
same,Vkorc1 logFC,,−0.4042
same,Vsig4 logFC,,0.4833
same,Wfdc17 logFC,,0.4867
same,Xbp1 logFC,,0.6032
same,Ywhag logFC,,0.5824
same,Zfp683 logFC,,−0.4217
same,mmu-mir-6236 logFC,,0.7875
same,mt-Atp6 logFC,,−0.5737
same,mt-Nd6 logFC,,−0.4779
same,mt-Tm logFC,,0.2847
same,mt-Tq logFC,,0.2879
same,15-Sep logFC,composite DEG,−0.4092
same,0610005C13Rik logFC,composite DEG,−0.4251
same,0610011F06Rik logFC,composite DEG,−0.3037
same,1100001G20Rik logFC,composite DEG,−0.8516
same,1110001J03Rik logFC,composite DEG,−0.4328
same,1500011K16Rik logFC,composite DEG,−0.3296
same,1500017E21Rik logFC,composite DEG,−0.461
same,1700017B05Rik logFC,composite DEG,0.3307
same,1810022K09Rik logFC,composite DEG,−0.3001
same,2010003K11Rik logFC,composite DEG,0.5884
same,2010107E04Rik logFC,composite DEG,−0.3182
same,2410015M20Rik logFC,composite DEG,−0.4021
same,2810007J24Rik logFC,composite DEG,−0.9143
same,AW112010 logFC,composite DEG,−0.2981
same,Aadat logFC,composite DEG,−0.3186
same,Aass logFC,composite DEG,0.4775
same,Abca6 logFC,composite DEG,0.3328
same,Abcb4 logFC,composite DEG,0.4947
same,Abcc3 logFC,composite DEG,0.3638
same,Abcd2 logFC,composite DEG,0.2851
same,Abcd3 logFC,composite DEG,−0.2718
same,Abhd14b logFC,composite DEG,−0.3937
same,Acad11 logFC,composite DEG,0.3571
same,Acadl logFC,composite DEG,0.3162
same,Acads logFC,composite DEG,−0.3242
same,Acat1 logFC,composite DEG,0.3689
same,Acbd5 logFC,composite DEG,−0.3952
same,Acly logFC,composite DEG,0.3288
same,Aco2 logFC,composite DEG,0.2859
same,Acot1 logFC,composite DEG,0.3078
same,Acot12 logFC,composite DEG,0.3078
same,Acsl1 logFC,composite DEG,−0.3703
same,Acsm1 logFC,composite DEG,−0.3692
same,Actb logFC,composite DEG,1.06
same,Actn4 logFC,composite DEG,0.3124
same,Acy3 logFC,composite DEG,−0.3137
same,Adamts1 logFC,composite DEG,0.2826
same,Adck3 logFC,composite DEG,−0.8761
same,Adh1 logFC,composite DEG,−1.255
same,Adtrp logFC,composite DEG,−0.3664
same,Aff4 logFC,composite DEG,0.6163
same,Agpat2 logFC,composite DEG,−0.2982
same,Agpat6 logFC,composite DEG,0.3963
same,Agpat9 logFC,composite DEG,0.327
same,Agxt logFC,composite DEG,−0.2584
same,Ahcy logFC,composite DEG,−0.563
same,Ak2 logFC,composite DEG,−0.3451
same,Akap11 logFC,composite DEG,0.3464
same,Akap13 logFC,composite DEG,0.4953
same,Akr1a1 logFC,composite DEG,−0.3269
same,Akr1c19 logFC,composite DEG,−0.2727
same,Akr1d1 logFC,composite DEG,0.361
same,Alad logFC,composite DEG,−0.4206
same,Aldh4a1 logFC,composite DEG,−0.2907
same,Aldh9a1 logFC,composite DEG,0.4159
same,Aldob logFC,composite DEG,0.3655
same,Amacr logFC,composite DEG,−0.4136
same,Amy1 logFC,composite DEG,0.4327
same,Anapc13 logFC,composite DEG,−0.3642
same,Ankrd11 logFC,composite DEG,0.4156
same,Anp32a logFC,composite DEG,−0.317
same,Apc logFC,composite DEG,0.6067
same,Apcs logFC,composite DEG,0.7584
same,Aplp2 logFC,composite DEG,0.3394
same,Apoa4 logFC,composite DEG,1.368
